The test system of data set [1] is intact lenses dissected from wild-type mouse eyeglobes. The data set can be described thus: Ex vivo lens toxicity test, isolated lenses incubated 2 days. To be noted: 8 mM, 37 C, positive control for lens toxicity. The procedure: (§1) FIG. 3. Ex vivo lens toxicity test of TAPP1. The eyeglobes of mice (aged 42 days) were cultured overnight either with control solution (media containing 45% β-cyclodextrin) or TAPP1 (TAPP1 in media containing 45% β-cyclodextrin), at 37° C. overnight, and in 95% air/5% CO2. […] To determine the effects of TAPP1 on isolated lenses, intact lenses were dissected from wild-type mouse eyeglobes, and incubated in DMEM media in a 96 well tissue culture plate. Groups of 3-6 lenses were incubated in 200 μl of media alone (negative control), 4% (2-hydroxypropyl)-β-cyclodextrin (carrier control), 8 mM hydrogen peroxide (H2O2, positive control for lens toxicity), 4 mM TAPP1-O (free radical form), 4 mM TAPP1-R (reduced form), and 4 mM of the two products of TAPP1-R hydrolysis (HP-1 and HP-2), respectively. β-cyclodextrin was included as a carrier control because all of the stock solutions contained 45% (2-hydroxypropyl)-β-cyclodextrin. The samples were incubated in 5% CO2 incubator at 37 C for 2 days.
(§2) The TAPP compositions are intended for topical delivery to the anterior portion of the eye. […] Morphological or anatomical effects are determined by comparison of TAPP-treated samples to samples incubated with either the TAPP vehicle or samples which are exposed (10 min treatment) to 100% ethanol (a positive control for lens toxicity). […]

The subject of data set [2] is oxidation of ABTS to ABTS^•+ radical cation by metmyoglobin. The data set can be described thus: In vitro anti-oxidant assay: inhibition of metmyoglobin-mediated oxidation of ABTS to ABTS•+ (absorbance at 750 nm). The data set is classed as biochemical.
Data set [3] is described as follows: Pharmacokinetics and ocular tissue distribution of total radioactivity after single topical dose in rabbit. The data set is classed as in vivo, New Zealand White rabbits. The procedure:
(§3) FIG. 14. Pharmacokinetics and ocular tissue distribution of total radioactivity following single topical dose administration of [^14C]Compound 14 in rabbit. Four New Zealand White rabbits, age 3-4 months, weight 2.7 to 3.2 kg were used for this study. The rabbits were anesthetized and drug was administered as described above. At each specified time post dosing (0.5, 1, 2, and 4 hr), blood was collected from the ear vein of one rabbit and recovered serum volume was recorded. Rabbits were sacrificed by asphyxiation and both eyeballs were enucleated. Each eyeball was rinsed in 10 ml fresh PBS to wash off unabsorbed drug. The following tissues were harvested from each eye: anterior segment, lens, vitreous body, retina and posterior segment (without retina). Total radioactivity of each tissue and in serum was determined using a liquid scintillation analyzer (Packard Tri-Carb 2100TR). CPM was converted to DPM, and quantity of the drug (pmole) absorbed in each tissue was calculated based on specific activity (average DPM in tissues from left and right eyes). The serum level of the drug was determined as concentration (pmole/ml). [^14C]Compound 14 was rapidly taken into ocular tissues (within ˜15 min) and peak drug concentration in all tissues occurred at ˜0.5 hr.
as §3, with “Four” for “FIG. 14. Pharmacokinetics and ocular tissue distribution of total radioactivity following single topical dose administration of [^14C]Compound 14 in rabbit. Four”, “and an ophthalmic formulation of Compound 14” for “and drug”, “administered topically to the eye.” for “administered as described above.”

Data set [4] can be described thus: Pharmacokinetics and ocular tissue distribution of total radioactivity after single topical dose in mice. Type of data set: in vivo, ABCA4+/−/SOD+/− mice. The procedure:
(§4) FIG. 13. Pharmacokinetics and ocular tissue distribution of total radioactivity following single topical dose administration of [^14C]Compound 14 in mice. Seven ABCA4+/−/SOD+/− mice were used for this study. The mice were anesthetized and drug was administered as described above. At each specified time post dosing (0 min, 15 min, 30 min, 1 hr, 2 hr, 4 hr and 6 hr), one mouse was sacrificed by cervical dislocation and both eyeballs were enucleated. Each eyeball was rinsed in 1 ml fresh PBS to wash off unabsorbed drug. The right eye was analyzed intact. From the left eye, the following tissues were harvested: lens, anterior segment, retina and posterior segment. Total radioactivity of all tissues was determined using a liquid scintillation analyzer. […] Peak drug concentration in all tissues occurred at ˜1 hr.
as §4, with “Seven” for “FIG. 13. Pharmacokinetics and ocular tissue distribution of total radioactivity following single topical dose administration of [^14C]Compound 14 in mice. Seven”, “and an ophthalmic formulation of Compound 14, prepared as described above,” for “and drug”, “administered topically to the eye.” for “administered as described above.”

In data set [5] the test system is eyeglobes of mice. Briefly: Ex vivo lens toxicity test, whole eyeglobes cultured overnight. To be noted: brief treatment (10 min) with 100% ethanol, positive control. How it is done: as §1, §2

Bounds are passed on as bounds.

For the molecule `OO` [Compound H2O2, hydrogen peroxide], the “cataract in isolated lenses” value in data set [1] is recorded as “caused obvious cataract”.
Broadly, the IC50 is the concentration that inhibits the measured activity by half. Read a low IC50 as inhibition by little substance. For the molecule `CC1(C)CC(OCCCCCC(O)/C=C/C(=O)O)CC(C)(C)N1O` (stereo not shown) [[^14C]Compound 14], the “dose-response of anti-oxidation activity” value in data set [2] (0, 5, 10, 20, 50, 100, 200 and 500 μM) is “dose-dependent anti-oxidation activity”. The molecule also displayed an IC50 in data set [2] (0-500 μM compound, 15 μM ABTS, 2.5 μM metmyoglobin, 80 μM hydrogen peroxide, room temperature) of about 10 µM. Moreover, in data set [3], the “amount in vitreous body” value is “intermediate amount”; the “ocular tissues with the highest recovery” value is “anterior and posterior segments”; the “recovery in retina and lens, lower than in anterior and posterior segments” value was “approximately 10 fold”; the “time of peak drug concentration in all tissues” value is about 0.5 h. In addition, the “time until uptake into ocular tissues” value in data set [3] is at most 15 min. In data set [4], the “ocular tissues with lower concentrations” value is “lens and retina”; the “ocular tissues with the highest concentrations” value was “anterior and posterior segments”; the “time of peak drug concentration in all tissues” value was about 1 h; the “time until uptake into ocular tissues” value is given as at most 15 min.
Turning to `CCO` [ethanol, reference compound], the “cataract formation in eyeglobes” value in data set [5] is given as “caused cataract formation”.

These data come from patent US20090253745A1, “MODULATORS OF OCULAR OXIDATIVE STRESS” (SIRION THERAPEUTICS, INC., priority 2007, published 2009).
